These results are taken from publication PMC12700902 (Communications Biology, 2025).

“And” between values parts separate entries of the source, which are not always exact repeats. Identical values can stand only once. “Also recorded” adds a separate entry of the source. Like-named read-outs stand apart in the source and are kept apart here.

One assay deals with A. mellifera α5 nAChR (Apis mellifera, UniProt A0A0H3V1C5). In words: Two-electrode voltage clamp of X. laevis oocytes expressing the A. mellifera α5 nAChR (wild-type). Type of assay: cell-based. The settings on record: for normalised current response (Fig. 1c source data): single oocytes, normalised to maximal concentration of Fig. 1b. The procedure:
(§1) Oocytes were mainly obtained either from Ecocyte (https://ecocyte-us.com/products/xenopus-oocyte-delivery-service/), which arrived ready for injection, or from the European Xenopus Resource Centre (https://xenopusresource.org/resources) as ovarian sections. In the latter case, oocytes were either prepared for injection by incubation in collagenase type I in OR2 (sodium chloride 82 mM, potassium chloride 2 mM, magnesium chloride 2 mM, HEPES 5 mM, pH 7.6) at 2 mg/ml for 45 min at room temperature and shaking at 150 RPM[19] or by manual defolliculation followed by incubation with 0.5 mg/ml collagenase type I in OR2 for 6 min at room temperature at 150 RPM. Oocyte nuclei were injected with 23 nl of A. mellifera α5 DNA cloned into the pCI vector[19] […] Mutant A. mellifera α5 subunits (in pCI) were injected at 100–500 ng/µl. […] Oocytes were clamped at −80 mV and responses were recorded on a flatbed chart recorder (Kipp and Zonen BD-11E, Delft, The Netherlands). The oocytes were continuously perfused with SOS at a flow rate of 10 ml/min. Oocytes were selected for experiments if responses were consistent for two or more applications of the normalising concentration of agonist. Test chemicals were applied at 3 min intervals. Agonist concentration response curves were created by measuring the response of the oocytes to different agonist concentrations in SOS, responses were normalised to the maximal response induced by the agonist. Amitraz (10 mM) was dissolved in DMSO and then at a working concentration in 1:1000 ratio in SOS. All other chemicals were either dissolved in distilled water to make frozen stocks (100 mM) or dissolved directly in SOS (10 mM) on the day of use. […] Oocytes were clamped at voltages ranging between −100 and +40 mV to determine the current voltage relationship.
Concentration-response data were fitted with the Hill equation: y=Imax/1/EC50/agonist^nH where y is the normalised current amplitude, Imax is the maximal response Imax/Iagonistmax , EC50 is the agonist concentration at half-maximal efficacy, [agonist] is the agonist concentration and nH is the Hill coefficient, to estimate the EC50 and Hill coefficient. Curve fitting was carried out using GraphPad software version 10 (GraphPad Software, La Jolla, CA, United States). […] The peak of the current responses was normalised to the agonist concentration that gave a maximal response. Error bars on graphs show standard error, ‘n’ indicates the number of experiments and ‘batch’ indicates the number of frogs these oocytes came from. Values are shown as mean ± 95% confidence limits.

In assay [1] the test system is X. laevis oocytes injected with water only. As to the kind of experiment: Oocytes injected with water only. It counts as cell-based, Xenopus laevis. The procedure: as §1
Assay [2] deals with α5 subunit of D. melanogaster. The settings on record: homomeric receptor; cited from earlier work.
Where [3] appears, read: Table 1 series, oocytes clamped at −80 mV, mean (95% confidence limits), read-out: EC50.
[4] abbreviates: read-out: Maximum response relative to 5 mM ACh (%).
[5] abbreviates: Table 1 series, mean (95% confidence limits).
The mark [6] stands for this setting: 1 mM, applied 3 min after 5 mM ACh.

One may read the Hill coefficient as a measure of the steepness of the concentration-response curve. By EC50 is commonly meant the midpoint of the concentration-response curve.

A. mellifera α5 nAChR, sequence (A0A0H3V1C5 entry or part of it): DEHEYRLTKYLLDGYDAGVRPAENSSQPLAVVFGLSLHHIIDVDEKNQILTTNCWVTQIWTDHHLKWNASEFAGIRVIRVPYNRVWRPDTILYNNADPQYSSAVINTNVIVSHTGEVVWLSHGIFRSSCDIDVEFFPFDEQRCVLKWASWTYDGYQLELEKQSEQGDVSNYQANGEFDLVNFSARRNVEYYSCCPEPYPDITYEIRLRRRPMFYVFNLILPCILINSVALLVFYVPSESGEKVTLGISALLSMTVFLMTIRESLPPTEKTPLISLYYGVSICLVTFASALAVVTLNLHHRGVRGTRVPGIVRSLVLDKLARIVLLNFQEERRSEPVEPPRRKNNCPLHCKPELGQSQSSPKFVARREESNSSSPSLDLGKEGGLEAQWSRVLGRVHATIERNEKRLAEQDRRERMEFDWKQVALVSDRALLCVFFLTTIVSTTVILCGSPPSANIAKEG

Regarding `NCCc1c[nH]cn1` [Histamine, histamine], on A. mellifera α5 nAChR, the Hill coefficient is 2.500 (1.050–3.950) and the “type of agonist action relative to ACh” value was “partial agonist”. Besides, on A. mellifera α5 nAChR (setting [3]), the EC50 turned out to be 3360 µM. Moreover, on A. mellifera α5 nAChR (setting [4]), the Emax at 5000 µM turned out to be 45.3%.

As to `Cc1ccc(/N=C/N(C)/C=N/c2ccc(C)cc2C)c(C)c1` [amitraz], the antagonist action result at A. mellifera α5 nAChR (10 µM coapplied with 400 µM octopamine) is listed as “no antagonist actions; also recorded: nor antagonistic actions”. At A. mellifera α5 nAChR (10 µM, applied 3 min after 5 mM ACh), the agonist action result was “no agonist actions; also recorded: did not show any agonist actions”.

Regarding `C[N+](C)(C)CCO` [Choline], the Hill coefficient at A. mellifera α5 nAChR was 2.043 (0.9065–3.180). The molecule also yielded a 50% effective concentration (EC50) at A. mellifera α5 nAChR (EC50) of 9070 µM. At A. mellifera α5 nAChR (setting [4]), the Emax turned out to be 100%.

Turning to `NCCc1ccc(O)cc1` [Tyramine, tyramine], the “response of water-injected oocytes” value in assay [1] was “no tyramine and octopamine responses”. Besides, the Hill coefficient at A. mellifera α5 nAChR (setting [5]) is on record as 1.918 (1.355–2.481). Besides, the 50% effective concentration (EC50) on A. mellifera α5 nAChR (setting [3]) stood at 91.1 µM. Also, the “normalised current response (Fig. 1c source data)” value (shortened to “normalised current response”) is 1 on A. mellifera α5 nAChR (log[Agonist] M -3); 0.538 and 0.456 and 0.597 and 0.416 and 0.62 at A. mellifera α5 nAChR (log[Agonist] M -4, listed as TA); 0 at A. mellifera α5 nAChR (log[Agonist] M -5). Moreover, the Emax at 1000 µM at A. mellifera α5 nAChR (setting [4]) is 770%. For the same molecule, the “type of agonist action relative to ACh” value on A. mellifera α5 nAChR (wild-type) is “superagonists”.

In the case of `N[C@@H](CCC(=O)O)C(=O)O` [glutamate], the agonist response entry on A. mellifera α5 nAChR (setting [6]) is recorded as “none of them were able to induce detectable responses; also recorded: no agonist actions”.

Regarding `NCCc1ccc(O)c(O)c1` [Dopamine, dopamine], in assay [1], the “response of water-injected oocytes” value was “no detectable response; also recorded: no responses were detected”. Moreover, on A. mellifera α5 nAChR, the Hill coefficient was 2.220 (1.585–2.855), the “effect of absence of Na+ on agonist response” value is reported as “eliminated the response”, the response on co-application entry was “synergistic agonism” and the “response when applied alone” value is given as “did not induce detectable responses”.

`NCCc1c[nH]c2ccc(O)cc12` [Serotonin]: the Hill coefficient on A. mellifera α5 nAChR (setting [5]) is reported as 3.419 (2.503–4.335). Besides, on A. mellifera α5 nAChR (setting [4]), the Emax came to 238%.

As to `NCC(O)c1ccc(O)cc1` (stereo not shown) [Octopamine, octopamine], in assay [1], the “response of water-injected oocytes” value is “no tyramine and octopamine responses”. Besides, the Hill coefficient at A. mellifera α5 nAChR (setting [5]) was 3.727 (2.998–4.455). Further, the EC50 at A. mellifera α5 nAChR (setting [3]) was 378 µM. Moreover, the “normalised current response” value was 1.1 and 0.809 at A. mellifera α5 nAChR (log[Agonist] M -2.22185, listed as OA); 0.943 and 1.14 and 0.971 and 0.986 and 0.935 and 1.1 at A. mellifera α5 nAChR (log[Agonist] M -2.52288, listed as OA); 1 on A. mellifera α5 nAChR (log[Agonist] M -3); 0.892 and 0.674 and 0.971 and 0.901 and 1.01 and 0.859 at A. mellifera α5 nAChR (log[Agonist] M -3.22185, listed as OA); 0.827 and 0.623 on A. mellifera α5 nAChR (log[Agonist] M -3.30103, listed as OA); 0.284 and 0.276 and 0.462 and 0.451 and 0.389 and 0.232 on A. mellifera α5 nAChR (log[Agonist] M -3.52288, listed as OA). The “normalised current response” value on A. mellifera α5 nAChR (log[Agonist] M -5) is on record as 0. On A. mellifera α5 nAChR (setting [4]), the Emax at 1000 µM worked out at 899%. For the same molecule, the “type of agonist action relative to ACh” value on A. mellifera α5 nAChR (wild-type) was “superagonists”.

As for `CC(=O)OCC[N+](C)(C)C` [Acetylcholine, acetylcholine], the concentration giving a half-maximal response (EC50) in assay [2] was 8.8 µM. Besides, on A. mellifera α5 nAChR, the Hill coefficient is given as 2.304 (1.886–2.721), the “effect of absence of Na+ on agonist response” value was “eliminated the response”, the response on co-application result is listed as “synergistic agonism” and the “response when applied alone” value is “did not induce detectable responses”. Further, the “shape of concentration response curve” value at A. mellifera α5 nAChR was “biphasic concentration response curve”. For the same molecule, on A. mellifera α5 nAChR (setting [4]), the Emax was determined as 100%.

As to `COc1cc(CCO)ccc1O` [homovanillyl alcohol], the agonist response result on A. mellifera α5 nAChR (100 μM or 1 mM) is recorded as “did not elicit a response; also recorded: no agonist actions”.

On to α-bungarotoxin, for which, at A. mellifera α5 nAChR, the “antagonist action on ACh response” value is on record as “antagonistic actions” and the “washing time after which response to 2 mM ACh was restored” value came out at 26 min.

Turning to `NCCCC(=O)O` [GABA, γ-aminobutyric acid], the agonist response result on A. mellifera α5 nAChR (setting [6]) is “none of them were able to induce detectable responses; also recorded: no agonist actions”.

On to `NCC(=O)O` [glycine], for which the agonist response entry on A. mellifera α5 nAChR (setting [6]) is given as “none of them were able to induce detectable responses; also recorded: no agonist actions”.
